This note sets out measurements from PMC10648349, “Aromatic Diboronic Acids as Effective KPC/AmpC Inhibitors” (Molecules, 2023).

≈ marks a conversion by molar mass, not a printed value. Where “and” joins values, the source holds several entries; their conditions need not be identical. Equal entries are not always repeated. Where two headings read alike, the source gives them in different places.

The test system of one assay is Gram-positive strains. Briefly: direct antimicrobial activity, MIC. The assay is classed as cell-based. The protocol: (§1) Direct antimicrobial activity against Gram-negative and Gram-positive bacterial strains, as well as against yeast, was examined as previously described by the disc-diffusion test, the MIC determination assay, the MBC (for bacteria), and the MFC (for yeasts) determination tests. All the above-mentioned tests were performed according to EUCAST [71, 72] and CLSI [73, 74, 75, 76, 77] recommendations. The following reference agents were used: nitrofurantoin (for Gram-negative rods), linezolid (for Gram-positive bacteria), and fluconazole (in the case of fungi). The new aromatic diboronic acids were dissolved in DMSO (Sigma, St. Louis, MO, USA). In the disc-diffusion test, the concentration of new agents was 0.4 mg per disc. Depending on the solubility, the MIC and MBC/MFC values were determined up to 100 mg/L for 1k, up to 200 mg/L for 7c, and up to 400 mg/L for the remaining compounds: 1a–1j, 2a–2g, 3a–3f, 4a–4b, 5a–5c, 6a and 7a–7b.

The next assay deals with KPC producers. Nature of the assay: microdilution with carbapenems. The format is cell-based. The method, then: (§2) To examine the ability of tested agents to inhibit various carbapenemases and AmpC-enzymes, their synergy with antibiotics against β-lactamase-producing strains was assessed by checkerboard microdilution assay, with slight modification. Checkerboards were prepared in microtiter plates, with seven two-fold dilutions of β-lactams (1–64 mg/L) in the rows and three two-fold dilutions of tested agents and PBA (4–16 mg/L) in the columns. Tested agents’ concentrations were limited to the concentrations at which the newest commercially available BLIs (vaborbactam, relebactam, and avibactam) are used in susceptibility testing. Plates were inoculated and incubated as in the MIC microdilution assay. Parallel, MICs of tested agents and PBA alone were determined by the microdilution assay. Following the incubation, antibiotic MICs in the presence of each agent’s concentration were determined. Moreover, for the first well without growth found in each checkerboard row and column along the growth/non-growth interface, the fractional inhibitory concentration index (FICI) was calculated using the formula below:FICI = [(MIC of antibiotic in combination)/(MIC of antibiotic alone)] + [(MIC of the tested agent in combination)/(MIC of tested agent alone)].
(§3) For calculations, all off-scale MICs were converted to the next-highest doubling concentration. Subsequently, both the average and the lowest FICI were interpreted. The interpretation was as follows: FICI ≤ 0.5, synergy; 0.5 < FICI ≤ 4, indifference and FICI > 4, antagonism. Primarily, examined combinations consisted of meropenem (Pol-Aura, Morag, Poland) plus tested agents against carbapenemases-producing strains and ceftazidime (Pol-Aura, Morag, Poland) plus tested agents against AmpC-producing strains. For agents that reduced meropenem MIC at least 4-fold for at least two tested strains, similar assays were performed with imipenem (Pol-Aura, Morag, Poland) and ertapenem (Pol-Aura, Morag, Poland).
Background: In broth dilution the organism is exposed to a series of concentrations in liquid medium.

A further assay concerns AmpC producers. Nature of the assay: microdilution with ceftazidime. The assay is classed as cell-based. The method, then:
as §2, §3

Assay [1] deals with E. coli 82 TR(pl 81), transformant carrying blaKPC-3. Briefly: whole cell assay, meropenem MIC with tested agent. The note with it: for MIC: Escherichia coli, read-out: MIC of agent alone. The assay is classed as cell-based, Escherichia coli. The protocol: as §2
The subject of a further assay is E. coli DH5α. Nature of the assay: whole cell assay, meropenem MIC with tested agent. The assay is classed as cell-based, Escherichia coli. The protocol: as §2
For assay [2], the target named is KPC-3 in purified protein extract from E. coli 82 TR(pl 81) (Klebsiella pneumoniae, UniProt Q9F663, H272Y). Briefly: nitrocefin hydrolysis test. The assay is classed as biochemical. The note with it: single repetitions. The method, then:
Overnight culture of E. coli 82 TR(pl 81) in MHB was diluted 1:100 into fresh MHB and incubated with shaking at 37 °C until an OD600 of 1 was attained. […] Further incubation was performed under the same conditions until an OD600 of 3 was reached. The culture with the required OD600 was centrifuged (6700× g, 10 min) and the supernatant was discarded. From the obtained bacterial cell pellet total proteins were extracted with the ReadyPreps™ Protein Preparation Kit (Epicentre Biotechnologies, Madison, WI, USA) and used in the subsequent nitrocefin hydrolysis test, performed in a 96-well microplate. Nitrocefin is a chromogenic cephalosporin substrate routinely used to detect the presence of β-lactamases. First, 20 μL of the protein extract was mixed with 80 μL of tested agents (1a, 2a, 3a and PBA as a reference BLI, each examined at concentrations: 4, 8 and 16 mg/L) or with 80 μL of the phosphate buffer (positive control—corresponding to KPC enzyme activity in the purified total proteins extracted from E. coli 82 TR(pl 81) cells). After 10 min of incubation at the room temperature 100 μL of the nitrocefin (Oxoid, Basingstoke, Hampshire, England) was added to reach its final concentration of 150 μM. β-lactamases hydrolyze the β-lactam ring of nitrocefin, causing its degradation and color change. Nitrocefin hydrolysis was evaluated after 3 min of the incubation at room temperature.
As in our previous publication the presence of β-lactamases in the purified protein extract with and without tested agents was assessed by the spectrophotometric measurement of the rates of nitrocefin hydrolysis as relative absorbance at 486 nm. The level of the measured absorbance indicated β-lactamase activity. Finally, the difference in the relative absorbance between the positive control and the sample concentration of the tested inhibitors was calculated and expressed as a percentage. A reduction in the relative absorbance level in the presence of a tested agent was taken as an indicator of the BLI activity of a used aromatic diboronic acid. The experiment was performed in triplicate.

Another assay relates to yeasts. Briefly: antifungal activity, MIC/MFC. The format is cell-based. Conditions: moderate antifungal activity. The method, then:
as §1

Where [3] appears, read: Escherichia coli; read-out: MIC of agent alone.

Sequence of KPC-3 in purified protein extract from E. coli 82 TR(pl 81) (Q9F663 25-293 H272Y): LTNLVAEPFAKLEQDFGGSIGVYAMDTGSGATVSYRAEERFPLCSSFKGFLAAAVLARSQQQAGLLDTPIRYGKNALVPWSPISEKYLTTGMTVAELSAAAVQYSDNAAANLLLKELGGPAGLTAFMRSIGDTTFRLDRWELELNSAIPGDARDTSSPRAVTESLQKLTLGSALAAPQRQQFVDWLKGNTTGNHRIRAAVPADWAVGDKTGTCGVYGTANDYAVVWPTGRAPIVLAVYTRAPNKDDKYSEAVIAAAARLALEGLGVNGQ

By MIC is commonly meant the smallest concentration in the dilution series that meets the test's criterion for growth inhibition. Turning to `OB(O)c1cc(F)c(B(O)O)cc1F` [1e], the MIC with Gram-positive strains (enterococci) was 100 to 400 µg/mL (≈ 496 to 1980 µM); against Gram-positive strains (staphylococci) it was 12.5 to 50 µg/mL (≈ 62 to 248 µM).
As to `OB(O)c1cc(F)ccc1F` [7a, 2,5-difluorophenylboronic acid], the “carbapenems' MIC reduction, up to” value is no more than 2 fold in the assay with KPC producers (agent 4 mg/L) and “up to 8 fold” in the assay on KPC producers (agent 8 mg/L). In addition, the “ceftazidime MIC reduction, up to” value is reported as no more than 8 fold with AmpC producers (agent 4 mg/L), “up to 16 fold” in the assay on AmpC producers (agent 8 mg/L) and “up to 32 fold” with AmpC producers (agent 16 mg/L).
As for `OB(O)c1ccsc1B(O)O` [5a, thiophene-2,3-diboronic acid], the “ceftazidime MIC reduction, up to” value is reported as no more than 2 fold with AmpC producers (agent 4 mg/L), “up to 4 fold” in the assay on AmpC producers (agent 8 mg/L) and no more than 8 fold with AmpC producers (agent 16 mg/L).
On to `OB(O)c1ccccc1` [PBA, phenylboronic acid, reference compound], for which the minimum inhibitory concentration (MIC) was greater than 400 µg/mL in assay [1] and greater than 400 µg/mL in the assay with E. coli DH5α (Escherichia coli, read-out: MIC of agent alone). Further, the “MIC of meropenem in combination with agent” value (“MIC of meropenem” below) is 0.50 µg/mL in assay [1] (agent 4 mg/L), 0.25 µg/mL in assay [1] (agent 8 mg/L), 0.25 µg/mL in assay [1] (agent 16 mg/L) and 0.016 µg/mL in the assay with E. coli DH5α (agent 16 mg/L). Moreover, the “Relative absorbance (nitrocefin hydrolysis, 486 nm)” value (“Relative absorbance” below) in assay [2] (agent 4 mg/L) was 1.093 and 1.087 and 1.232; in assay [2] (agent 8 mg/L), 1.183 and 1.165 and 1.117; in assay [2] (agent 16 mg/L) it was 0.975 and 0.933 and 0.957. Also, the “carbapenems' MIC reduction, up to” value in the assay with KPC producers (agent 16 mg/L, KPC-2 producers) is recorded as “up to 8 fold”; with KPC producers (agent 16 mg/L, KPC-3 producers), “up to 4 fold”.
In the assay on yeasts, `OB(O)c1cc(Br)c(B(O)O)cc1Br` [1i] registered an MIC of 6.25 to 50 µg/mL (≈ 19.3 to 155 µM).
In the case of `OB(O)c1ccc(B(O)O)cc1` [1a], the minimum inhibitory concentration (MIC) (in assay [1]; in the assay on E. coli DH5α (setting [3])) was greater than 400 µg/mL in each case. The “MIC of meropenem” value worked out at 0.50 µg/mL in assay [1] (agent 4 mg/L), 0.25 µg/mL in assay [1] (agent 8 mg/L), 0.125 µg/mL in assay [1] (agent 16 mg/L) and 0.016 µg/mL in the assay with E. coli DH5α (agent 16 mg/L). In addition, the “Relative absorbance” value is 1.348 and 1.320 and 1.308 in assay [2] (agent 4 mg/L); 1.214 and 1.079 and 1.201 in assay [2] (agent 8 mg/L); 0.998 and 1.066 and 1.076 in assay [2] (agent 16 mg/L). Further, the “carbapenems' MIC reduction, up to” value with KPC producers (agent 4 mg/L) is recorded as no more than 2 fold; in the assay on KPC producers (agent 8 mg/L) it was “up to 8 fold”. Further, the “ertapenem potentiation better than PBA, by up to” value in the assay on KPC producers (all KPC producers) is listed as “up to 8 fold”.
Consider `OB(O)c1cccc(B(O)O)c1` [2a], for which the MIC (in assay [1]; in the assay on E. coli DH5α (setting [3])) was greater than 400 µg/mL each time. Moreover, the “MIC of meropenem” value in assay [1] (agent 4 mg/L) was 1 µg/mL; in assay [1] (agent 8 mg/L), 1 µg/mL; in assay [1] (agent 16 mg/L) it was 1 µg/mL; in the assay with E. coli DH5α (agent 16 mg/L), 0.016 µg/mL. Further, the “meropenem MIC reduction” value in assay [1] (agent 4, 8 and 16 mg/L) was 2 fold. Moreover, the “Relative absorbance” value is 1.605 and 1.649 and 1.595 in assay [2] (agent 4 mg/L); 1.520 and 1.499 and 1.528 in assay [2] (agent 8 mg/L); 1.377 and 1.274 and 1.280 in assay [2] (agent 16 mg/L).
